Earlier results as cited in patent US6770295B1 (Pharmacia AB, priority 1998, dated 2004).

Settings: following oral administration

duration: three to six
SMILES: CCN(CC)CC#CCOC(=O)C(O)(c1ccccc1)C1CCCCC1 (racemic) [Oxybutynin, 4-diethylamino-2-butynyl-phenylcyclohexylglycolate]
